Literature values as cited in patent US6927272B2, “Electronic component-use material and electronic component using it” (Matsushita Electric Industrial Co., Ltd., priority 2001, dated 2005).

settings: cis-form; room temperature (20-30° C.)

SMILES	Vapor Pressure
CC1(C)C(C=C(Cl)Cl)C1C(=O)OC(C#N)c1ccc(F)c(Oc2ccccc2)c1 (stereo not drawn) [β-cyfluthrin]	cis-form 10/ nPa

same assay, conditions: room temperature (20-30° C.)

SMILES	Vapor Pressure
Cc1c(COC(=O)[C@@H]2[C@H](/C=C(\Cl)C(F)(F)F)C2(C)C)cccc1-c1ccccc1 (racemic) [bifenthrin]	24,000 nPa
Cc1c(F)c(F)c(COC(=O)[C@@H]2[C@H](/C=C(\Cl)C(F)(F)F)C2(C)C)c(F)c1F (racemic) [tefluthrin]	80,000,000 nPa
CC1(C)[C@H](C(=O)O[C@H](C#N)c2cccc(Oc3ccccc3)c2)[C@@H]1/C=C\C(=O)OC(C(F)(F)F)C(F)(F)F [acrinathrin]	390 nPa
CC1(C)C(C=C(Cl)Cl)C1C(=O)OC(C#N)c1cccc(Oc2ccccc2)c1 (stereo not drawn) [cypermethrin]	230 nPa
CC(C)=CC1C(C(=O)OC(C#N)c2cccc(Oc3ccccc3)c2)C1(C)C (stereo not drawn) [cyphenothrin]	400,000 nPa
CC(C)=CC1C(C(=O)OCN2C(=O)C3=C(CCCC3)C2=O)C1(C)C (stereo not drawn) [d-tetramethrin]	320,000 nPa
CC1(C)[C@H](C(=O)O[C@H](C#N)c2cccc(Oc3ccccc3)c2)[C@@H]1C=C(Br)Br [deltamethrin]	2,000 nPa
CC(C)C(C(=O)OC(C#N)c1cccc(Oc2ccccc2)c1)c1ccc(Cl)cc1 (stereo not drawn) [fenvalerate]	37,000 nPa
CC(C)[C@H](C(=O)OC(C#N)c1cccc(Oc2ccccc2)c1)c1ccc(OC(F)F)cc1 (stereo partly drawn) [flucythrinate]	1,200 nPa
CC1(C)C(C=C(Cl)Cl)C1C(=O)OCc1cccc(Oc2ccccc2)c1 (stereo not drawn) [permethrin]	45,000 nPa
CC(C)=CC1C(C(=O)OCc2cccc(Oc3ccccc3)c2)C1(C)C (stereo not drawn) [phenothrin]	160,000 nPa
CC(C)=CC1C(C(=O)OCc2coc(Cc3ccccc3)c2)C1(C)C (stereo not drawn) [resmethrin]	1,500 nPa
CCOc1ccc([Si](C)(C)CCCc2ccc(F)c(Oc3ccccc3)c2)cc1 [silafluofen]	731,500 nPa
CC1(C)[C@H](C(=O)O[C@H](C#N)c2cccc(Oc3ccccc3)c2)[C@@H]1C(Br)C(Br)(Br)Br (stereo partly drawn) [tralomethrin]	0.017 nPa
CC1(C)C(/C=C(\Cl)C(F)(F)F)C1C(=O)OC(C#N)c1cccc(Oc2ccccc2)c1 (stereo not drawn) [λ-cyhalothrin]	200 nPa
CC(C)[C@@H](Nc1ccc(C(F)(F)F)cc1Cl)C(=O)OC(C#N)c1cccc(Oc2ccccc2)c1 (stereo partly drawn) [τ-fulvalinate]	13,000 nPa

same assay, conditions: trans-form; room temperature (20-30° C.)

SMILES	Vapor Pressure
CC1(C)C(C=C(Cl)Cl)C1C(=O)OC(C#N)c1ccc(F)c(Oc2ccccc2)c1 (stereo not drawn) [β-cyfluthrin]	90 nPa
